How the values were obtained:
[1] = DPPH (1,1-diphenyl-2-picrylhydrazyl) test for the removal of free radicals; type: physicochemical; conditions: c(test compound)/c(DPPH); DPPH 100 μmol/l in methanol; absorption at 515 nm
Method: The activity of the exemplary compounds as in examples 1 to 3 as free-radical scavengers was compared with that of conventional free-radical scavengers. For this purpose, the DPPH (1,1-diphenyl-2-picrylhydrazyl) test for the removal of free radicals was used.
DPPH was dissolved in methanol to a concentration of 100 μmol/l. A series of dilutions of the exemplary compounds, vitamin C, α-tocopherol and dibutylhydroxytoluene were prepared in methanol. Methanol served as the control. 2500 μl of the DPPH solution were mixed with 500 μl of each test solution and the decrease in absorption at 515 nm was read until the decrease was less than 2% per hour. The activity of the test substances as free-radical scavengers was calculated according to the following equation:
Activity as free-radical scavenger (%)=100−(absorption of the test compounds)/(absorption of the control)×100.
The activity as free-radical scavenger (%) in a series of dilutions of test compounds was used to calculate, for each test compound, the effective relative concentration EC50 (based on the starting concentration of DPPH, EC=c (test compound)/c(DPPH)) of a test compound at which 50% of the free radical DPPH had been removed.

[2] = Accelerated autoxidation of lipids by air (Rancimat apparatus), antioxidative index; type: physicochemical; conditions: AOI=IP(with test solution)/IP(control sample); squalene purified over alumina, stabilized with 1 ppm α-tocopherol; dry air 20 l/h
Method: The activity of the exemplary compounds as in examples 1 to 3 as antioxidants was compared with that of conventional antioxidants. The test system used was the accelerated autoxidation of lipids by air with or without antioxidant using the Rancimat apparatus (Rancimat is a registered trademark of Metrohm AG, Herisau, Switzerland).
The exemplary compounds, vitamin C, α-tocopherol and dibutylhydroxytoluene were dissolved in methanol or acetone, and 100 μl of each test solution were added to a 3 g preprepared oil sample. In a control sample, only solvent was added. A constant stream of dry air (20 l/h) was bubbled through the heated oil sample which contained the test solution, and the volatile oxidation products (predominantly short-chain fatty acids such as formic acid or acetic acid) were collected in a receiver containing water. The conductivity of this aqueous solution was continuously measured and documented. The oxidation of (unsaturated) fats proceeds only very slowly for some time and then suddenly increases. The time to the increase is referred to as the induction period (IP).
The following equation was used to calculate the antioxidative index (AOI):
AOI=IP(with test solution)/IP(control sample).
The results for the experiment at […] in squalene that has been purified over alumina grade N and stabilized with 1 ppm of α-tocopherol are given in table 2: […]

For `Cc1cc(C(C)(C)C)c(O)c(C(C)(C)C)c1` [Dibutylhydroxytoluene], the “EC50 (effective relative concentration at which 50% of the free radical DPPH had been removed)” value [1] was 0.24 mol/mol and the “AOI in squalene at 80° C. with 0.005% of test substance” value (“AOI … with 0.005% of test substance” below) [2] was 38.
With `O=C1O[C@H]([C@@H](O)CO)C(O)=C1O` [Vitamin C] the “EC50 (effective relative concentration at which 50% of the free radical DPPH had been removed)” value [1] was 0.27 mol/mol and the “AOI … with 0.005% of test substance” value [2] was 0.7.
In the case of `O=C(NC1CCCCC1)C(O)c1ccc(O)c(O)c1` (stereo not drawn) [Example 2, N-Cyclohexyl-2-(3,4-dihydroxyphenyl)-2-hydroxyacetamide], the “EC50 (effective relative concentration at which 50% of the free radical DPPH had been removed)” value [1] was 0.11 mol/mol and the “AOI … with 0.005% of test substance” value [2] was 43.
With `CCCCC(CC)CNC(=O)C(O)c1ccc(O)c(O)c1` (stereo not drawn) [Example 1, 2-(3,4-Dihydroxyphenyl)-N-(2-ethylhexyl)-2-hydroxyacetamide] the “EC50 (effective relative concentration at which 50% of the free radical DPPH had been removed)” value [1] was 0.12 mol/mol and the “AOI … with 0.005% of test substance” value [2] was 69.
In the case of `CCCCCCNC(=O)C(O)c1ccc(O)c(O)c1` (stereo not drawn) [Example 3, 2-(3,4-Dihydroxyphenyl)-N-n-hexyl-2-hydroxyacetamide], the “EC50 (effective relative concentration at which 50% of the free radical DPPH had been removed)” value [1] was 0.12 mol/mol and the “AOI … with 0.005% of test substance” value [2] was 55.
In the case of `Cc1c(C)c2c(c(C)c1O)CC[C@@](C)(CCC[C@H](C)CCC[C@H](C)CCCC(C)C)O2` [α-Tocopherol], the “EC50 (effective relative concentration at which 50% of the free radical DPPH had been removed)” value [1] was 0.25 mol/mol and the “AOI … with 0.005% of test substance” value [2] was 39.

From US20030171617A1, “3,4-Dihydroxymandelic acid alkylamides and use thereof” (priority 2000, published 2003)
